Data taken from article PMC10201669, “A novel coumarin derivative DBH2 inhibits proliferation and induces apoptosis of chronic myeloid leukemia cells” (Genes & Diseases, 2022).
≈ marks a conversion by molar mass, not a printed value.

How the values were obtained:
[1] = tested on: bone marrow myeloid cells from wild type mice; assay: Annexin V/PI apoptosis, bone marrow myeloid cells from WT mice (Fig 5); assay type: cell-based, mouse; conditions: WT, 50, 100, 200 μg/mL, 24 h
Description: (§1) Apoptotic cells were quantified with an FITC Annexin V Apoptosis detection kit (Becton Dickinson Biosciences, USA) according to manufacturer’s protocol. Briefly, cells at 1 × 10^5 cells/mL were incubated with various concentrations (50, 100 and 200 μg/mL) of compound DBH2 for 24 h at 37 °C. Cells were harvested and re-suspended in the binding buffer, then stained with 5 μL Annexin V-FITC and 5 μL propidium iodide (PI) for 15 min at room temperature in the dark. The apoptotic index was immediately determined by FACSCalibur Flow Cytometer (Becton Dickinson Biosciences, CA). For the cell cycle, K562 cells were harvested and fixed in 75% ethanol overnight at 4 °C, then re-suspended in pre-cooling PBS containing 0.1 mg/mL RNase and 0.02 mg/mL PI for 30 min at 37 °C. After the treatment of compound DBH2 or 1% DMSO as vehicle control, the cell cycle was analyzed using the flow cytometry and Cell Quest software (BD Biosciences, USA).
(§2) The SCL-tTA-BCR/ABL transgenic model mice were used as donor, and sub-lethally irradiated (850 rad) wild type mice were use as receiver, once the bone marrow transplantation (BMT) was performed from the donor mice to the recipient mice, the CML-like model mice was established. After 8 weeks, the bone marrow reconstitution was confirmed, and the effect of treatments to the survival rates of recipient mice was observed. […]

[2] = tested on: CD34+ hematopoietic stem and progenitor cells (HSPCs); assay: CCK-8 cell viability assay (cytotoxicity), HSPCs; assay type: cell-based, human; conditions: CCK-8, 48 h; for IC50: Homo sapiens
Source text: (§3) Human CD34^+ HSCPs were obtained from the specimens of consenting healthy donors or CML patients at Xijing Hospital, and purified using Human Whole Blood CD34 Positive Selection Kit II (StemCell Technologies, China). Briefly, the human bone marrow was homogenized, and the top layering with Ficoll-Paque (GE Healthcare, USA) interphase containing immune cells and CD34^+ HSPCs was collected and washed with PBS, then CD34^+ HSPCs were purified according to the protocol of EasySep human CD34 positive selection kit (StemCell Technologies, China). CD34^+ cells were cultured in StemSpan-ACF medium II supplemented with 50 ng/mL human stem cell factor, 10 ng/mL thrombopoietin, 20 ng/mL FMS-related tyrosine kinase 3 ligand, 20 ng/mL interleukin-6 and 1% penicillin-streptomycin solution.
(§4) Cell viability was examined using the cell counting kit-8 (CCK-8) assay (YEASEN China). In brief, cells (1 × 10^4 cells/well) in confluent 96-well cell culture plates were treated with different concentrations of coumarin derivative (1, 5, 10, 25, 50, 100, 200, and 400 μg/mL) for 48 h. Then 10 μL CCK-8 reagents were added into every well for 2 h of incubation. Optical density (OD) was detected using the microplate reader (BioTek, Germany). The values were then fit into a non-linear regression curve and the IC50 was calculated using GraphPad Prism.

STAT5 = assay: Quantitative RT-PCR, STAT5 mRNA in K562 cells; assay type: cell-based, human; conditions: K562, 50, 100, 200 μg/mL
Description: (§5) RNA was extracted from cells using an RNA extraction kit according to the manufacturer protocol. After reverse transcription, the real-time PCR was performed for three independent experiments with a 7300 real-time PCR system (Applied Biosystems, USA) using SYBR Premix ExTaq (Takara, China). The relative expression of genes was calculated by the 2^-△△Ct method, with normalization to GAPDH levels. Amplified products were visualized with an Alpha Imager 2200 digital imaging system (Alpha Innotech, USA). The primers (forward and backward) used were depicted in Table S1.

K562 cells [3] = assay: CCK-8 cell viability assay, K562 cells; assay type: cell-based, human; conditions: CCK-8, 48 h; for IC50: Homo sapiens, K562
Description: (§6) Human CML cell line K562 cells and human umbilical vein endothelial cells (HUVECs) were purchased from ATCC (Manassas, USA). Drug resistant K562 (K562R) cells were provided by the Chinese Academy of Medical Science Hematology Institute. The cells were cultured in RPMI-1640 medium containing 10% fetal bovine serum (FBS) in cell culture flasks under a humidified 5% CO2 and 95% air atmosphere at 37 °C. Bone marrow (BM) cells from mice or patients were cultured in DMEM/F12 medium supplemented with 20% FBS.
as §4

[4] = tested on: bone marrow cells from SCL-tTA-BCR/ABL transgenic model mice; assay: Annexin V/PI apoptosis, bone marrow cells from SCL-tTA-BCR/ABL transgenic model mice; assay type: cell-based, mouse; conditions: 50, 100, 200 μg/mL
Description: as §6
as §1, with “For the cell cycle, K562 cells were harvested and fixed in 75% ethanol overnight at 4 °C, then re-suspended in pre-cooling PBS containing 0.1 mg/mL RNase and 0.02 mg/mL PI for 30 min at 37 °C.” left out, “USA). […]” for “USA).”

[5] = tested on: CML-like model mice (recipients of SCL-tTA-BCR/ABL bone marrow); assay: Survival of CML-like model mice after bone marrow transplantation; assay type: in vivo, mouse; conditions: DBH2 100 mg/kg, 32 days with two-day interval post-BMT, intragastric
Description: (§7) The SCL-tTA-BCR/ABL transgenic model mice were used as donor, and sub-lethally irradiated (850 rad) wild type mice were use as receiver, once the bone marrow transplantation (BMT) was performed from the donor mice to the recipient mice, the CML-like model mice was established. […] Caspase-3 knock-out mice were kindly gifted from the lab of Professor Hua Han, the Fourth Military Medical University.

STAT3 = assay: Quantitative RT-PCR, STAT3 mRNA in K562 cells; assay type: cell-based, human; conditions: K562, 50, 100, 200 μg/mL
Description: as §5

[6] = tested on: CD34+ LSCs from CML patients; assay: Apoptosis of CD34+ LSCs from CML patients; assay type: cell-based, human; conditions: 100 μg/mL, 24 h
Source text: as §3
(§8) Apoptotic cells were quantified with an FITC Annexin V Apoptosis detection kit (Becton Dickinson Biosciences, USA) according to manufacturer’s protocol. Briefly, cells at 1 × 10^5 cells/mL were incubated with various concentrations (50, 100 and 200 μg/mL) of compound DBH2 for 24 h at 37 °C. […] The apoptotic index was immediately determined by FACSCalibur Flow Cytometer (Becton Dickinson Biosciences, CA). […] After the treatment of compound DBH2 or 1% DMSO as vehicle control, the cell cycle was analyzed using the flow cytometry and Cell Quest software (BD Biosciences, USA).

K562R cells = assay: CCK-8 cell viability assay, drug resistant K562 cells; assay type: cell-based, human; conditions: CCK-8, 48 h; for IC50: Homo sapiens, K-562R
Description: as §6, §4

ROCK1 = assay: Western blot, ROCK1 protein in K562 cells; assay type: cell-based, human; conditions: K562, 50, 100, 200 μg/mL
Description: (§9) Cells were washed with Tris-buffered saline (TBS) and lysed by adding 100 μL of RIPA Lysis Buffer System containing protease inhibitors. Then, cell extraction was subjected to gel electrophoresis and transferred onto a polyvinylidene difluoride membrane (Millipore, Germany). After blocking with 3% BSA in TBS for 2 h, the membrane was probed with primary antibodies overnight at 4 °C, the antibody against PARP1 (Proteintech, USA) or ROCK1 proteins (Proteintech, USA) was diluted at 1:1000, and the antibody for GAPDH (Abcam, UK) was diluted at 1:1000. After secondary antibodies labeled with infrared dyes were added, the signals were visualized using the Odyssey Infrared Imaging System (Biosciences, USA).

PARP1 = assay: Western blot, PARP1 protein in K562 cells; assay type: cell-based, human; conditions: K562, 100 and 200 μg/mL, vs untreated control
Description: as §9

[7] = tested on: bone marrow cells from CML patients; assay: Annexin V/PI apoptosis, bone marrow cells from CML patients; assay type: cell-based, human
Description: as §6
The ages of three male CML patients […], all of them were newly diagnosed chronic phase, and before starting TKI therapy. Informed consent was obtained from all participants. This study adhered to the World Medical Association’s Declaration of Helsinki and its amendments for Ethical Human Research including confidentiality, privacy, and data management.
as §8, with “protocol.” for “protocol. Briefly, cells at 1 × 10^5 cells/mL were incubated with various concentrations (50, 100 and 200 μg/mL) of compound DBH2 for 24 h at 37 °C.”

K562 cells [8] = assay: Annexin V-FITC/PI flow cytometry, apoptosis of K562 cells; assay type: cell-based, human; conditions: 50, 100, 200 μg/mL, 24 h, vs vehicle
Description: as §1

[9] = tested on: bone marrow cells of recipients (BCR/ABL model mice); assay: Annexin V/PI apoptosis, bone marrow cells of BMT recipients, DBH2 with or without imatinib; assay type: cell-based, mouse; conditions: DBH2 at various concentrations with or without 1 μM imatinib
Description: as §7

K562 cells [10] = assay: Transmission electron microscopy of K562 cells; assay type: cell-based, human; conditions: K562, 100 μg/mL, post 24 h
Description: CML cells were seeded and grown at […] in three flasks.

K562 cells [11] = assay: Cell cycle distribution by flow cytometry, K562 cells; assay type: cell-based, human; conditions: K562, 100 μg/mL; vehicle 33.9%
Description: as §1

HUVECs = assay: CCK-8 cell viability assay (cytotoxicity), HUVECs; assay type: cell-based, human; conditions: CCK-8, 48 h; for IC50: Homo sapiens, HUVEC
Description: as §6, §4

[12] = tested on: bone marrow myeloid cells from caspase-3 gene knock-out mice; assay: Annexin V/PI apoptosis, bone marrow myeloid cells from caspase-3 knock-out mice; assay type: cell-based, mouse
Description: as §1, §2

[13] = tested on: human cervical cancer HeLa cells; design: method as in PMID 18210747; conditions: G0/G1 arrest and apoptosis; cited from earlier work

Structure (SMILES) | IC50 [2] | IC50 (K562 cells [3]) | IC50 (K562R cells) | IC50 (HUVECs) | other results
O=c1oc2ccccc2c(O)c1C(c1cc(F)cc(F)c1)c1c(O)c2ccccc2oc1=O [DBH2, 3,3′-(3,5-difluorobenzylidene)-bis-(4-hydroxycoumarin)] | 225 µg/mL (≈ 502 µM) | 36.3 µg/mL (≈ 81 µM) | 38.8 µg/mL (≈ 86.5 µM) | 232 µg/mL (≈ 518 µM) | Annexin V positive cells [1]: increasing number of Annexin V positive cells; expression of STAT5 mRNA (STAT5): inhibit the expression of STAT3 and STAT5 in a dose-dependent manner; apoptosis in bone marrow cells from CML model mice compared to WT mice [4]: induce the remarkable apoptosis; survival of treated mice [5]: remarkably prolonged about two times; expression of STAT3 mRNA (STAT3): inhibit the expression of STAT3 and STAT5 in a dose-dependent manner; CD34+ LSCs developed into the apoptotic process [6]: more than twice fold; expression of ROCK1 protein (ROCK1): up-regulated the expression of ROCK1 in dose-dependent manner; expression of PARP1 protein (PARP1): up-regulate the expression of PARP1 significantly; apoptosis of bone marrow cells from CML patients ([7]; 50, 100 and 200 μg/mL): promoted the apoptosis of bone marrow cells from CML patients in dose-dependent manner; induced apoptosis in bone marrow cells from CML patients compared to its effects on CD34+ LSC ([7]; bone marrow cells vs CD34+ LSC): almost twice fold; apoptosis in CML cells (K562) (K562 cells [8]): trigger significant apoptosis in CML cells with concentration-dependent responses; number of apoptotic cells [9]: ascendant number of apoptotic cells; morphological observation (TEM) (K562 cells [10]): typical apoptotic-body in nuclear appeared; percentage of cells in the G2/M phase (K562 cells [11]): 41.3%; DBH2-induced apoptosis compared to the cells from wild type mice ([12]; caspase-3 knock-out vs WT): significant less; Annexin V positive cells ([12]; caspase-3 knock-out, 50, 100, 200 μg/mL, 24 h): increasing number of Annexin V positive cells
COc1cc(OC)cc(C(c2c(O)c3ccccc3oc2=O)c2c(O)c3ccccc3oc2=O)c1 [DBH5, 3,3′-(3,5-dimethoxybenzylidene)-bis-(4-hydroxycoumarin)] | 46.4 µg/mL (≈ 98.2 µM) | 30.4 µg/mL (≈ 64.5 µM) | 34.4 µg/mL (≈ 72.7 µM) | 50.3 µg/mL (≈ 106 µM) | 
O=c1oc2ccccc2c(O)c1C(c1ccccc1)c1c(O)c2ccccc2oc1=O [DBH1, 3,3′-benzylidene-bis-(4-hydroxycoumarin)] | 76.3 µg/mL (≈ 185 µM) | 31.3 µg/mL (≈ 75.8 µM) | 33.4 µg/mL (≈ 81 µM) | 85.7 µg/mL (≈ 208 µM) | 
O=c1ccc2ccccc2o1 [coumarin] |  |  |  |  | IC50 [13]: 54.2 µM
O=c1oc2ccccc2c(O)c1C(c1cc(Br)cc(Br)c1)c1c(O)c2ccccc2oc1=O [DBH4, 3,3′-(3,5-dibromobenzylidene)-bis-(4-hydroxycoumarin)] | 83.1 µg/mL (≈ 146 µM) | 36.5 µg/mL (≈ 64.1 µM) | 39.9 µg/mL (≈ 69.9 µM) | 88.7 µg/mL (≈ 155 µM) | 
O=c1oc2ccccc2c(O)c1C(c1cc(Cl)cc(Cl)c1)c1c(O)c2ccccc2oc1=O [DBH3, 3,3′-(3,5-dichlorobenzylidene)-bis-(4-hydroxycoumarin)] | 72.4 µg/mL (≈ 150 µM) | 36.5 µg/mL (≈ 75.8 µM) | 45.7 µg/mL (≈ 95 µM) | 52.3 µg/mL (≈ 109 µM) | 
COc1cccc2c1C(=O)c1c(O)c3c(c(O)c1C2=O)C[C@@](O)(C(=O)CO)C[C@@H]3O[C@H]1C[C@H](N)[C@H](O)[C@H](C)O1 [Doxorubicin, reference compound] | 8.04 µg/mL (≈ 14.8 µM) | 16.4 µg/mL (≈ 30.2 µM) | 24.1 µg/mL (≈ 44.4 µM) | 8.76 µg/mL (≈ 16.1 µM) | 
O=c1oc2ccccc2c(O)c1C(c1cc(C(F)(F)F)cc(C(F)(F)F)c1)c1c(O)c2ccccc2oc1=O [DBH6, 3,3′-(3,5-ditrifluoromethylbenzylidene)-bis-(4-hydroxycoum-arin)] |  |  |  |  | IC50, HSPCs [2]: 67.75 µg/mL (≈ 124 µM); IC50, K562 cells (K562 cells [3]): 31.32 µg/mL (≈ 57.1 µM); IC50, K562 R cells (K562R cells): 35.68 µg/mL (≈ 65.1 µM); IC50, HUVECs (HUVECs): 72.42 µg/mL (≈ 132 µM)
